Like-named read-outs stand apart in the source and are kept apart here.
How the values were obtained:
Assay type in all cases: cell-based
[1] = tested on: MDAMB468.1; test: Cell Titer Glo (CTG) proliferation assay, MDA-MB-468; conditions: MDAMB468.1 cells, 72.0 hrs., read-out: AVE CTG Proliferation MDAMB468.1 72.0 hrs.
Description: (§1) Seed cells in 40 μL of cell culture media into each well of 384-well cell culture plate, spin them at room temperature at 1,000 RPM for 1 minute and then transfer the plates into 37° C. 5% CO2 incubator overnight. Next day, treat cells with 40 nL of diluted compound and return to incubator. After compound treatment for 3 days, Add 30 μL of CellTiter-Glo reagent (Promega) into each well to be detected. Then place the plates at room temperature for 30 min followed by reading on EnVision. Inhibition activity calculated as % DMSO=100×(LumSample-Lum low control)/(Lum high control-Lum low control) where high control is from cells treated with 0.1% DMSO and Low control obtained from PBS only. Use XLFit (equation 201) to calculate IC50 (A+ ((B−A)/(1[…]((x/C)^D)))) where A: Bottom, B: Top, C: IC50, D: Slope.

[2] = tested on: MDAMB231.1; test: Cell Titer Glo (CTG) proliferation assay, MDA-MB-231; conditions: MDAMB231.1 cells, 72 hrs., read-out: AVE CTG Proliferation MDAMB231.1 72 hrs.
Description: as §1

[3] = tested on: KU1919.1; test: Cell Titer Glo (CTG) proliferation assay, KU1919; conditions: KU1919.1 cells, 72.0 hrs., read-out: AVE CTG Proliferation KU1919.1 72.0 hrs.
Description: as §1

Structure (SMILES)	IC50 [1] [µM]	IC50 [2] [µM]	IC50 [3] [µM]	IC50 ([1]; Homo sapiens, MDA-MB-468) [µM]	IC50 ([2]; Homo sapiens, MDA-MB-231) [µM]	IC50 ([3]; Homo sapiens, KU-19-19) [µM]
NC1(C(=O)N[C@@H](CCO)c2ccc(Cl)cc2)CCN(c2nc[nH]c3nccc2-3)CC1 [AZD-5363, Capivasertib, reference compound]	> 10	> 10	> 10	–	–	–
CCOc1cc(OC)ccc1CNCC(=O)N1CCCC(c2cccc(C(=O)N[C@@H](C(=O)N3CCN(CC4CCN(CC(=O)NCCNC[C@@H](C(=O)N5CCN(c6ncnc7c6[C@H](C)C[C@H]7O)CC5)c5ccc(Cl)cc5)CC4)CC3)C3CCCCC3)c2)C1 (stereo partly shown) [Compound I-17]	–	–	–	1 to 5	1 to 5	1 to 5
CCc1cccc(-c2cnc(C(=O)N3CCC(OC4CCN(CC(=O)NCCNC[C@@H](C(=O)N5CCN(c6ncnc7c6[C@H](C)C[C@H]7O)CC5)c5ccc(Cl)cc5)CC4)CC3)c(NC(=O)CN3CCOCC3)c2)c1 [Compound I-174]	–	–	–	1 to 5	–	1 to 5
CCc1cccc(-c2cnc(C(=O)N3CCN(CC45CCC(NCC(=O)NCCNC[C@@H](C(=O)N6CCN(c7ncnc8c7[C@H](C)C[C@H]8O)CC6)c6ccc(Cl)cc6)(CC4)CO5)CC3)c(NC(=O)CN3CCOCC3)c2)c1 [Compound I-175]	–	–	–	1 to 5	–	1 to 5
CCc1cccc(-c2cnc(C(=O)NCCOCCNCC[C@H](NC(=O)C3(N)CCN(c4ncnc5[nH]ccc45)CC3)c3ccc(Cl)cc3)c(N)c2)c1 [Compound I-183]	–	–	–	5 to 10	–	5 to 10
CCc1cccc(-c2cnc(C(=O)NCCOCCNCC[C@H](NC(=O)C3(N)CCN(c4ncnc5[nH]ccc45)CC3)c3ccc(Cl)cc3)c(NC(C)=O)c2)c1 [Compound I-184]	–	–	–	> 10	–	5 to 10
CCc1cccc(-c2cnc(C(=O)N3CCC(OC4CCN(CC(=O)NCCNC[C@@H](C(=O)N5CCN(c6ncnc7c6[C@H](C)C[C@H]7O)CC5)c5ccc(Cl)cc5)CC4)CC3)c(N)c2)c1 [Compound I-194]	–	–	–	5 to 10	–	5 to 10
CCc1cccc(-c2cnc(C(=O)N3CCN(CC45CCC(NCC(=O)NCCNC[C@@H](C(=O)N6CCN(c7ncnc8c7[C@H](C)C[C@H]8O)CC6)c6ccc(Cl)cc6)(CC4)CO5)CC3)c(N)c2)c1 [Compound I-195]	–	–	–	> 10	–	> 10
CCc1cccc(-c2cnc(C(=O)N3CCC(OC4CCN(CC(=O)NCCNC[C@@H](C(=O)N5CCN(c6ncnc7c6[C@H](C)C[C@H]7O)CC5)c5ccc(Cl)cc5)CC4)CC3)c(NC(C)=O)c2)c1 [Compound I-196]	–	–	–	5 to 10	5 to 10	1 to 5
CCc1cccc(-c2cnc(C(=O)N3CCN(CC45CCC(NCC(=O)NCCNC[C@@H](C(=O)N6CCN(c7ncnc8c7[C@H](C)C[C@H]8O)CC6)c6ccc(Cl)cc6)(CC4)CO5)CC3)c(NC(C)=O)c2)c1 [Compound I-197]	–	–	–	1 to 5	–	5 to 10
CC(C)N(CCNC(=O)CN1CCC(CN2CCN(C(=O)[C@H](NC(=O)c3cccc(C4CCCN(C(=O)CNCc5ccc(F)cc5F)C4)c3)C3CCCCC3)CC2)CC1)C[C@@H](C(=O)N1CCN(c2ncnc3c2[C@H](C)C[C@H]3O)CC1)c1ccc(Cl)cc1 (stereo partly shown) [Compound I-200]	–	–	–	1 to 5	–	1 to 5
C[C@@H]1C[C@@H](O)c2ncnc(N3CCN(C(=O)C(CN4CCC(CN5CCN(C(=O)[C@H](NC(=O)c6cccc([C@H]7CCCN(C(=O)CNCc8ccc(F)cc8F)C7)c6)C6CCCCC6)CC5)CC4)c4ccc(Cl)cc4)CC3)c21 (stereo partly shown) [Compound I-201]	–	–	–	1 to 5	1 to 5	0.5 to 1
C[C@@H]1C[C@@H](O)c2ncnc(N3CCN(C(=O)[C@H](CNCCNC(=O)CNC45CCC(CN6CCN(C(=O)[C@H](NC(=O)c7cccc(C8CCCN(C(=O)CNCc9ccc(F)cc9F)C8)c7)C7CCCCC7)CC6)(CC4)OC5)c4ccc(Cl)cc4)CC3)c21 (stereo partly shown) [Compound I-203]	–	–	–	5 to 10	–	5 to 10
C[C@@H]1C[C@@H](O)c2ncnc(N3CCN(C(=O)[C@H](CNCCNC(=O)CN4CCC(CN5CCN(C(=O)[C@H](NC(=O)c6cccc(C7CCCN(C(=O)CNCc8ccc(F)cc8F)C7)c6)C6CCCCC6)CC5)CC4)c4ccc(Cl)cc4)CC3)c21 (stereo partly shown) [Compound I-204]	–	–	–	1 to 5	1 to 5	1 to 5
C[C@@H]1C[C@@H](O)c2ncnc(N3CCN(C(=O)[C@H](CNCCNC(=O)CN4CCC(CN5CCN(C(=O)[C@H](NC(=O)c6cccc(C7CCCN(C(=O)CNC8CC8)C7)c6)C6CCCCC6)CC5)CC4)c4ccc(Cl)cc4)CC3)c21 (stereo partly shown) [Compound I-205]	–	–	–	> 10	–	5 to 10
C[C@@H]1C[C@@H](O)c2ncnc(N3CCN(C(=O)[C@H](CNCCNC(=O)CN4CCC(CN5CCN(C(=O)c6cccc(C7CCCN(C(=O)CNC8CC8)C7)c6)CC5)CC4)c4ccc(Cl)cc4)CC3)c21 (stereo partly shown) [Compound I-206]	–	–	–	> 10	> 10	> 10
C[C@@H]1C[C@@H](O)c2ncnc(N3CCN(C(=O)[C@H](CNC4CCN(CC5CCN(C(=O)[C@H](NC(=O)c6cccc(C7CCCN(C(=O)C8CC8)C7)c6)C6CCCCC6)CC5)CC4)c4ccc(Cl)cc4)CC3)c21 (stereo partly shown) [Compound I-214]	–	–	–	1 to 5	–	1 to 5
C[C@@H]1C[C@@H](O)c2ncnc(N3CCN(C(=O)[C@H](CNCCNC(=O)CNC45CCC(CN6CCN(C(=O)[C@H](NC(=O)c7cccc(C8CCCN(C(=O)C9CC9)C8)c7)C7CCCCC7)CC6)(CC4)OC5)c4ccc(Cl)cc4)CC3)c21 (stereo partly shown) [Compound I-215]	–	–	–	> 10	–	> 10
CCc1cccc(-c2cnc(C(=O)NCCOCCNCC(=O)NCCN(C[C@@H](C(=O)N3CCN(c4ncnc5c4[C@H](C)C[C@H]5O)CC3)c3ccc(Cl)cc3)C(C)C)c(NC(C)=O)c2)c1 [Compound I-216]	–	–	–	1 to 5	–	1 to 5
CCc1cccc(-c2cnc(C(=O)NCCOCCNCC(=O)NCCN(C[C@@H](C(=O)N3CCN(c4ncnc5c4[C@H](C)C[C@H]5O)CC3)c3ccc(Cl)cc3)C(C)C)c(N)c2)c1 [Compound I-217]	–	–	–	1 to 5	–	1 to 5
NC1(C(=O)N[C@@H](CCN2CCN(C(=O)CN3CCC(OC4CCN(C(=O)c5cc(C6CCCN(C(=O)CNCc7ccc(F)cc7F)C6)ccc5F)CC4)CC3)CC2)c2ccc(Cl)cc2)CCN(c2ncnc3[nH]ccc23)CC1 (stereo partly shown) [Compound I-223]	–	–	–	1 to 5	–	1 to 5
NC1(C(=O)N[C@@H](CCN2CCN(C(=O)CN3CCC(OC4CCN(C(=O)[C@H](NC(=O)c5cc(C6CCCN(C(=O)CNCc7ccc(F)cc7F)C6)ccc5F)C5CCCCC5)CC4)CC3)CC2)c2ccc(Cl)cc2)CCN(c2ncnc3[nH]ccc23)CC1 (stereo partly shown) [Compound I-225]	–	–	–	1 to 5	–	1 to 5
NC1(C(=O)N[C@@H](CCN2CCC(OC3CCN(C(=O)c4cccc(C5CCCN(C(=O)CNCc6ccc(F)cc6F)C5)c4)CC3)CC2)c2ccc(Cl)cc2)CCN(c2ncnc3[nH]ccc23)CC1 (stereo partly shown) [Compound I-253]	–	–	–	1 to 5	–	1 to 5
NC1(C(=O)N[C@@H](CCN2CCN(C(=O)CN3CCC(OC4CCN(C(=O)c5cccc(C6CCCN(C(=O)C7CC7)C6)c5)CC4)CC3)CC2)c2ccc(Cl)cc2)CCN(c2ncnc3[nH]ccc23)CC1 (stereo partly shown) [Compound I-255]	–	–	–	> 10	–	> 10
NC1(C(=O)N[C@@H](CCN2CCN(C(=O)CN3CCC(OC4CCN(C(=O)c5cccc(C6CCCN(C(=O)CNCc7ccc(F)cc7F)C6)c5)CC4)CC3)CC2)c2ccc(Cl)cc2)CCN(c2ncnc3[nH]ccc23)CC1 (stereo partly shown) [Compound I-256]	–	–	–	5 to 10	–	5 to 10
NC1(C(=O)N[C@@H](CCN2CCN(C(=O)CN3CCC(OC4CCN(C(=O)c5cccc(C6CCCN(C(=O)CNC7CC7)C6)c5)CC4)CC3)CC2)c2ccc(Cl)cc2)CCN(c2ncnc3[nH]ccc23)CC1 (stereo partly shown) [Compound I-257]	–	–	–	> 10	–	> 10
CCc1cccc(-c2cnc(C(=O)NCCOCCNCC[C@H](NC(=O)C3(N)CCN(c4ncnc5[nH]ccc45)CC3)c3ccc(Cl)cc3)c(NC(=O)OC(C)(C)C)c2)c1 [Compound I-301]	–	–	–	1 to 5	–	1 to 5
CCc1cccc(-c2cnc(C(=O)N3CCC(OC4CCN(CC(=O)NCCNC[C@@H](C(=O)N5CCN(c6ccnc7c6[C@H](C)C[C@H]7O)CC5)c5ccc(Cl)cc5)CC4)CC3)c(NC(=O)OC(C)(C)C)c2)c1 [Compound I-304]	–	–	–	1 to 5	–	1 to 5
C[C@@H]1C[C@@H](O)c2ncnc(N3CCN(C(=O)[C@H](CNCCNC(=O)CN4CCC(CN5CCNCC5)CC4)c4ccc(Cl)cc4)CC3)c21 [Compound I-328]	–	–	–	> 10	–	> 10

Reference: patent US20250171465A1, “AKT INHIBITORS” (Stablix, Inc., priority 2023, published 2025)
